Measurements taken from patent US20120264735A1 (priority 2009, published 2012).

Target: T1, c-Met kinase (recombinant c-Met) (Homo sapiens, UniProt P08581)
T1 construct: 0.27 nM recombinant c-Met
Assay: In vitro kinase assay I (homogeneous time-resolved fluorescence tyrosine kinase assay)
Format: biochemical
How it was run: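 Biotinylated peptide (0.5 μM) phosphorylated by 0.2 nM recombinant c-Met with 50 μM MgATP, 60 min at room temperature, pH 7.4, 5% DMSO. EDTA stop; HTRF read with Eu-anti-phosphotyrosine antibody and streptavidin-APC. IC50 from 4-parameter logistic fit.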

T1 sequence (P08581 25-1390): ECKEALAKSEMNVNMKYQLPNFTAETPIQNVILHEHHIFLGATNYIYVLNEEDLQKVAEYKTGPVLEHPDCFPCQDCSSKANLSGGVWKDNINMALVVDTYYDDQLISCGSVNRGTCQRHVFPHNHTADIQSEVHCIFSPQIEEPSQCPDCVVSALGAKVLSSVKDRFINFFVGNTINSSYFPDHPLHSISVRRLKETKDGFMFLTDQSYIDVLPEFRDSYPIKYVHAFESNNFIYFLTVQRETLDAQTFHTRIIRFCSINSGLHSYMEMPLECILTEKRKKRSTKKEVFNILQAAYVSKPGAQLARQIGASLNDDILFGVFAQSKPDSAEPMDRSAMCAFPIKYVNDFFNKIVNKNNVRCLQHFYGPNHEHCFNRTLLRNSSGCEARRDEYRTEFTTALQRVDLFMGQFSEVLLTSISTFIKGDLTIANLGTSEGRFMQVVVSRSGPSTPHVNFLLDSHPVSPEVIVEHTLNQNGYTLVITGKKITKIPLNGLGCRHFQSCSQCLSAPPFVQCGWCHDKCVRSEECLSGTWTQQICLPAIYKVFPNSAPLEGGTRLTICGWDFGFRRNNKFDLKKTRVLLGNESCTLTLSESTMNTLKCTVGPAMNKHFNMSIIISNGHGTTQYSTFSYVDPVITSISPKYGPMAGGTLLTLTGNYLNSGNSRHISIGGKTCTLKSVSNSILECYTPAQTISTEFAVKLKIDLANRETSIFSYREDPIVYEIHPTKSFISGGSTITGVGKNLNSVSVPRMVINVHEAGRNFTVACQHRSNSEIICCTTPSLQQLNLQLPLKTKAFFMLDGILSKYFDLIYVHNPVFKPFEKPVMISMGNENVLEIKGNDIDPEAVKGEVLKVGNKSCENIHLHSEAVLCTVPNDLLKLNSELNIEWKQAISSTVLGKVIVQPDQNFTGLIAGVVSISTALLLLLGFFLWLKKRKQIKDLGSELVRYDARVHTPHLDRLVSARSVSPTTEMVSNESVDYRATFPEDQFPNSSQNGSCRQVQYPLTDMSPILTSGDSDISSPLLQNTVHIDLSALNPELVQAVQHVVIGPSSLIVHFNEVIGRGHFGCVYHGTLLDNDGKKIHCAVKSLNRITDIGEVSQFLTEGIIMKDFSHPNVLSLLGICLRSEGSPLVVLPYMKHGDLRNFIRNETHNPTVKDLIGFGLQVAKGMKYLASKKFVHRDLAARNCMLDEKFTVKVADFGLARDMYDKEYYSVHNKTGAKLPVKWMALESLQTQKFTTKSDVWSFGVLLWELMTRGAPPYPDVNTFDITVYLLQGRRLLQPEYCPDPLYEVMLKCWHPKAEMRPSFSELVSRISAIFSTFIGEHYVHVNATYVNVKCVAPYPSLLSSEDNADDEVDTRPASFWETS

IC50 | Compound
< 100 nM | CCn1cc(-n2ccc(=O)c(Cc3cccc(-c4ncc(OCc5cc(C)no5)cn4)c3)n2)cn1 [Example 313, 1-(1-ethyl-1H-pyrazol-4-yl)-3-(3-{5-[(3-methylisoxazol-5-yl)methoxy]primidin-2-yl}benzyl)pyridazin-4(1H)-one]
< 100 nM | CCn1cc(-n2ccc(=O)c(Cc3cccc(-c4ncc(OCc5noc(C)n5)cn4)c3)n2)cn1 [Example 314, 1-(1-ethyl-1H-pyrazol-4-yl)-3-(3-{5-[(5-methyl-1,2,4-oxadiazol-3-yl)methoxy]pyrimidin-2-yl}benzyl)pyridazin-4(1H)-one]
< 100 nM | CCn1cc(-n2ccc(=O)c(Cc3cccc(-c4ncc(OCCn5cccn5)cn4)c3)n2)cn1 [Example 315, 1-(1-ethyl-1H-pyrazol-4-yl)-3-(3-{5-[2-(1H-pyrazol-1-yl)ethoxy]pyrimidin-2-yl}benzyl)pyridazin-4(1H)-one]
< 100 nM | CCn1cc(-n2ccc(=O)c(Cc3cccc(-c4ncc(OCC5(C)COC5)cn4)c3)n2)cn1 [Example 316, 1-(1-ethyl-1H-pyrazol-4-yl)-3-(3-{5-[(3-methyloxetan-3-yl)methoxy]pyrimidin-2-yl}benzyl)pyridazin-4(1H)-one]
< 100 nM | COCCOc1cnc(-c2cccc(Cc3nn(-c4ccc(F)c(F)c4)ccc3=O)c2)nc1 [Example 317, 1-(3,4-difluorophenyl)-3-{3-[5-(2-methoxyethoxy)pyrimidin-2-yl]benzyl}pyridazin-4(1H)-one]
< 100 nM | COCCOc1cnc(-c2cccc(Cc3nn(-c4cc(F)c(F)c(F)c4)ccc3=O)c2)nc1 [Example 318, 3-{3-[5-(2-methoxyethoxy)pyrimidin-2-yl]benzyl}-1-(3,4,5-trifluorophenyl)pyridazin-4(1H)-one]
< 100 nM | COCCOc1cnc(-c2cccc(Cc3nn(-c4cccc(C#N)c4)ccc3=O)c2)nc1 [Example 319, 3-[3-{3-[5-(2-methoxyethoxy)pyrimidin-2-yl]benzyl}-4-oxopyridazin-1(4H)-yl]benzonitrile]
< 100 nM | COCCCOc1cnc(-c2cccc(Cc3nn(-c4ccc(F)c(F)c4)ccc3=O)c2)nc1 [Example 320, 1-(3,4-difluorophenyl)-3-{3-[5-(3-methoxypropoxy)pyrimidin-2-yl]benzyl}pyridazin-4(1H)-one]
< 100 nM | CCOCCOc1cnc(-c2cccc(Cc3nn(-c4ccc(F)c(F)c4)ccc3=O)c2)nc1 [Example 321, 1-(3,4-difluorophenyl)-3-{3-[5-(2-ethoxyethoxy)pyrimidin-2-yl]benzyl}pyridazin-4(1H)-one]
< 100 nM | COCCCOc1cnc(-c2cccc(Cc3nn(-c4cccc(C#N)c4)ccc3=O)c2)nc1 [Example 322, 3-[3-{3-[5-(3-methoxypropoxy)pyrimidin-2-yl]benzyl}-4-oxopyridazin-1(4H)-yl]benzonitrile]
< 100 nM | CCOCCOc1cnc(-c2cccc(Cc3nn(-c4cccc(C#N)c4)ccc3=O)c2)nc1 [Example 323, 3-[3-{3-[5-(2-ethoxyethoxy)pyrimidin-2-yl]benzyl}-4-oxopyridazin-1(4H)-yl]benzonitrile]
< 100 nM | COCCCOc1cnc(-c2cccc(Cc3nn(-c4cc(F)c(F)c(F)c4)ccc3=O)c2)nc1 [Example 324, 3-{3-[5-(3-methoxypropoxy)pyrimidin-2-yl]benzyl}-1-(3,4,5-trifluorophenyl)pyridazin-4(1H)-one]
< 100 nM | CCOCCOc1cnc(-c2cccc(Cc3nn(-c4cc(F)c(F)c(F)c4)ccc3=O)c2)nc1 [Example 325, 3-{3-[5-(2-ethoxyethoxy)pyrimidin-2-yl]benzyl}-1-(3,4,5-trifluorophenyl)pyridazin-4(1H)-one]
< 100 nM | O=c1ccn(-c2ccc(F)c(F)c2)nc1Cc1cccc(-c2ncc(OC3COC3)cn2)c1 [Example 326, 1-(3,4-difluorophenyl)-3-{3-[5-(oxetan-3-yloxy)pyrimidin-2-yl]benzyl}pyridazin-4(1H)-one]
< 100 nM | CC1(COc2cnc(-c3cccc(Cc4nn(-c5ccc(F)c(F)c5)ccc4=O)c3)nc2)COC1 [Example 329, 1-(3,4-difluorophenyl)-3-(3-{5-[(3-methyloxetan-3-yl)methoxy]pyrimidin-2-yl}benzyl)pyridazin-4(1H)-one]
< 100 nM | O=c1ccn(-c2cc(F)cc(F)c2)nc1Cc1cccc(-c2ncc(OC3COC3)cn2)c1 [Example 330]
< 100 nM | O=c1ccn(-c2cc(F)cc(F)c2)nc1Cc1cccc(-c2ncc(OCC3CCOCC3)cn2)c1 [Example 331, 1-(3,5-difluorophenyl)-3-{3-[5-(tetrahydro-2H-pyran-4-ylmethoxy)pyrimidin-2-yl]benzyl}pyridazin-4(1H)-one]
< 100 nM | CCn1cc(-n2ccc(=O)c(Cc3cccc(-c4ncc(OCC5(F)CCNCC5)cn4)c3)n2)cn1 [Example 335, 1-(1-ethyl-1H-pyrazol-4-yl)-3-(3-{5-[(4-fluoropiperidin-4-yl)methoxy]pyrimidin-2-yl}benzyl)pyridazin-4(1H)-one]

IC50 | Compound
< 100 nM | CCn1cc(-n2ccc(=O)c(Cc3cccc(-c4ncc(OCC5CCNCC5)cn4)c3)n2)cn1 [Example 336, 1-(1-ethyl-1H-pyrazol-4-yl)-3-{3-[5-(piperidin-4-ylmethoxy)pyrimidin-2-yl]benzyl}pyridazin-4(1H)-one]
< 100 nM | CCn1cc(-n2ccc(=O)c(Cc3cccc(-c4ncc(OC5CNC5)cn4)c3)n2)cn1 [Example 337, 3-{3-[5-(azetidin-3-yloxy)pyrimidin-2-yl]benzyl}-1-(1-ethyl-1H-pyrazol-4-yl)pyridazin-4(1H)-one]
< 100 nM | CC(c1cccc(-c2ncc(O[C@H]3CCNC[C@H]3F)cn2)c1)c1nn(-c2cnn(C)c2)ccc1=O (stereo partly drawn) [Example 344]
< 100 nM | Cn1cc(-n2ccc(=O)c(Cc3cccc(-c4ncc(OCc5ccncc5)cn4)c3)n2)cn1 [Example 353, 1-(1-Methyl-1H-pyrazol-4-yl)-3-{3-[5(pyridin-4-ylmethoxy)pyrimidin-2-yl]benzyl}pyridazin-4(1H)-one]
< 100 nM | Cn1cc(-n2ccc(=O)c(Cc3cccc(-c4ncc(OCc5ccccn5)cn4)c3)n2)cn1 [Example 354, 1-(1-methyl-1H-pyrazol-4-yl)-3-{3-[5-(pyridin-2-ylmethoxy)pyrimidin-2-yl]benzyl}pyridazin-4(1H)-one]
< 100 nM | Cn1cc(-n2ccc(=O)c(Cc3cccc(-c4ncc(OCc5cccnc5)cn4)c3)n2)cn1 [Example 355, 1-(1-methyl-1H-pyrazol-4-yl)-3-{3-[5-(pyridin-3-ylmethoxy)pyrimidin-2-yl]benzyl}pyridazin-4(1H)-one]
< 100 nM | Cn1cc(-n2ccc(=O)c(Cc3cccc(-c4ncc(OCc5ncn(C)n5)cn4)c3)n2)cn1 [Example 356, 1-(1-methyl-1H-pyrazol-4-yl)-3-(3-{5-[(1-methyl-1H-1,2,4-triazol-3-yl)methoxy]pyrimidin-2-yl}benzyl)pyridazin-4(1H)-one]
< 100 nM | Cn1cc(-n2ccc(=O)c(Cc3cccc(-c4ncc(OCC(=O)O)cn4)c3)n2)cn1 [Example 357, [2-(3-{[1-(1-Methyl-1H-pyrazol-4-yl)-4-oxo-1,4-dihydropyridazin-3-yl]methyl}phenyl)pyrimidin-5-yl]oxyacetic acid]
< 100 nM | Cn1cc(-n2ccc(=O)c(Cc3cccc(-c4ncc(OCC(C)(C)O)cn4)c3)n2)cn1 [Example 358, 3-{3-[5-(2-Hydroxy-2-methylpropoxy)pyrimidin-2-yl]benzyl}-1-(1-methyl-1H-pyrazol-4-yl)pyridazin-4(1H)-one]
< 100 nM | CCn1cc(-n2ccc(=O)c(Cc3cccc(-c4ncc(OCC(C)(C)O)cn4)c3)n2)cn1 [Example 359, 1-(1-ethyl-1H-pyrazol-4-yl)-3-{3-[5-(2-hydroxy-2-methylpropoxy)pyrimidin-2-yl]benzyl}pyridazin-4(1H)-one]
< 100 nM | CC(C)(O)COc1cnc(-c2cccc(Cc3nn(-c4ccc(F)c(F)c4)ccc3=O)c2)nc1 [Example 360, 1-(3,4-difluorophenyl)-3-{3-[5-(2-hydroxy-2-methylpropoxy)pyrimidin-2-yl]benzyl}pyridazin-4(1H)-one]
< 100 nM | CC(C)(O)COc1cnc(-c2cccc(Cc3nn(-c4cccc(C#N)c4)ccc3=O)c2)nc1 [Example 361, 3-[3-{3-[5-(2-hydroxy-2-methylpropoxy)pyrimidin-2-yl]benzyl}-4-oxopyridazin-1(4H)-yl]benzonitrile]
< 100 nM | CC(C)(O)COc1cnc(-c2cccc(Cc3nn(-c4cc(F)c(F)c(F)c4)ccc3=O)c2)nc1 [Example 362, 3-{3-[5-(2-hydroxy-2-methylpropoxy)pyrimidin-2-yl]benzyl}-1-(3,4,5-trifluorophenyl)pyridazin-4(1H)-one]
< 100 nM | CC(C)(O)COc1cnc(-c2cccc(Cc3nn(-c4cc(F)cc(F)c4)ccc3=O)c2)nc1 [Example 363, 1-(3,5-difluorophenyl)-3-{3-[5-(2-hydroxy-2-methylpropoxy)pyrimidin-2-yl]benzyl}pyridazin-4(1H)-one]
< 100 nM | Cn1cc(-n2ccc(=O)c(Cc3cccc(-c4ncc(OCC5(O)CCOCC5)cn4)c3)n2)cn1 [Example 365, 3-(3-{5-[(4-hydroxytetrahydro-2H-pyran-4-yl)methoxy]pyrimidin-2-yl}benzyl)-1-(1-methyl-1H-pyrazol-4-yl)pyridazin-4(1H)-one]
< 100 nM | CC(C)(O)COc1cnc(-c2cccc(Cc3nn(-c4cc(Cl)cc(C#N)c4)ccc3=O)c2)nc1 [Example 371, 3-chloro-5-[3-{3-[5-(2-hydroxy-2-methylpropoxy)pyrimidin-2-yl]benzyl}-4-oxopyridazin-1(4H)-yl]benzonitrile]
< 100 nM | CC(C)(O)COc1cnc(-c2cccc(Cc3nn(-c4ccc(C#N)cc4)ccc3=O)c2)nc1 [Example 372, 4-[3-{3-[5-(2-hydroxy-2-methylpropoxy)pyrimidin-2-yl]benzyl}-4-oxopyridazin-1(4H)-yl]benzonitrile]
< 100 nM | O=c1ccn(-c2ccc(F)c(F)c2)nc1Cc1cccc(-c2ncc(OCC3(O)CCOCC3)cn2)c1 [Example 373, 1-(3,4-difluorophenyl)-3-(3-{5-[(4-hydroxytetrahydro-2H-pyran-4-yl)methoxy]pyrimidin-2-yl}benzyl)pyridazin-4(1H)-one]
